Columns and labels:
Assay type in all cases: cell-based
[1] = system: Ba/F3-Mock cells; assay: Cell proliferation suppression test (CellTiter-Glo, GI50), Ba/F3-Mock; conditions: Mus musculus, BaF3, 72 h, 5 ng/mL IL-3, 3 days, N=4
How it was run: (§1)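 Ba/F3 lines in RPMI 1640/10% FBS without puromycin; IL-3 5 ng/mL added for Mock, EGF 100 ng/mL for EGFR WT. Cells treated 3 days at 37 °C, 5% CO2; ATP measured by CellTiter-Glo 2.0 on day 0 and day 3 (N=4). GI50 is the concentration inhibiting 50% of day 0–3 proliferation.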

[2] = system: Ba/F3-EGFR WT cells; assay: Cell proliferation suppression test (CellTiter-Glo, GI50), Ba/F3-EGFR WT; conditions: Mus musculus, 72 h, 100 ng/mL EGF, 3 days, N=4
How it was run: as §1

[3] = system: Ba/F3-EGFR ins. ASV cells; assay: Cell proliferation suppression test (CellTiter-Glo, GI50), Ba/F3-EGFR ins. ASV; conditions: Mus musculus, 72 h, 3 days, N=4
How it was run: as §1

[4] = system: Ba/F3-EGFR ins. SVD cells; assay: Cell proliferation suppression test (CellTiter-Glo, GI50), Ba/F3-EGFR ins. SVD; conditions: Mus musculus, 72 h, 3 days, N=4
How it was run: as §1

GI50 [2] [nM]	GI50 [3] [nM]	GI50 [4] [nM]	Compound	GI50 [1] [nM]
167	15.5	52.2	COc1cc2ncnc(Nc3ccc(Oc4cccc(-c5nnc(C)s5)c4)cc3F)c2cc1NC(=O)/C=C/CN(C)C [Example 44, (2E)-4-(Dimethylamino)-N-(4-{2-fluoro-4-[3-(5-methyl-1,3,4-thiadiazol-2-yl)phenoxy]anilino}-7-methoxyquinazolin-6-yl)but-2-enamide]	724
638	8.1	4.9	COc1cc2ncnc(Nc3ccc(Oc4nn(CC(=O)NC(C)(C)CF)cc4F)cc3Cl)c2cc1NC(=O)/C=C/CN(C)C [Example 48, (2E)-N-(4-{2-Chloro-4-[(4-fluoro-1-{2-[(1-fluoro-2-methylpropan-2-yl)amino]-2-oxoethyl}-1H-pyrazol-3-yl)oxy]anilino}-7-methoxyquinazolin-6-yl)-4-(dimethylamino) but-2-enamide]	3170
104	11.8	20.5	CCOc1cc2ncnc(Nc3ccc(Oc4cccc(-c5nnc(C6CC6)o5)c4)cc3F)c2cc1NC(=O)/C=C/CN(C)C [Example 51, (2E)-N-(4-{4-[3-(5-Cyclopropyl-1,3,4-oxadiazol-2-yl)phenoxy]-2-fluoroanilino}-7-ethoxyquinazolin-6-yl)-4-(dimethylamino)but-2-enamide]	806
78.3	7.4	5	C=CC(=O)N1CCC(Oc2cc3c(Nc4ccc(Oc5ccn(C(=O)NC(C)(C)C)n5)cc4F)ncnc3cc2OC)CC1 [Example 4, N-tert-Butyl-3-{3-fluoro-4-[(7-methoxy-6-{[1-(prop-2-enoyl)piperidin-4-yl]oxy}quinazolin-4-yl)amino]phenoxy}-1H-pyrazole-1-carboxamide]	7610
80.1	5.5	32.9	CCOc1cc2ncnc(Nc3ccc(Oc4cccc(-c5nnc(C)o5)c4)cc3F)c2cc1NC(=O)/C=C/CN(C)C [Example 40, (2E)-4-(Dimethylamino)-N-(7-ethoxy-4-{2-fluoro-4-[3-(5-methyl-1,3,4-oxadiazol-2-yl)phenoxy]anilino}quinazolin-6-yl)but-2-enamide]	765
412	10	11.6	COc1cc2ncnc(Nc3ccc(Oc4nn(CC(=O)NC(C)(C)C)cc4F)cc3Cl)c2cc1NC(=O)/C=C/CN(C)C [Example 45, (2E)-N-{4-[4-({1-[2-(tert-Butylamino)-2-oxoethyl]-4-fluoro-1H-pyrazol-3-yl}oxy)-2-chloroanilino]-7-methoxyquinazolin-6-yl}-4-(dimethylamino)but-2-enamide]	2840
732	20.7	21.1	COc1cc2ncnc(Nc3ccc(Oc4cccc(CC(=O)NC(C)(C)C)c4)cc3F)c2cc1NC(=O)/C=C/CN1CCOCC1 [Example 49, (2E)-N-[4-(4-{3-[2-(tert-Butylamino)-2-oxoethyl]phenoxy}-2-fluoroanilino)-7-methoxyquinazolin-6-yl]-4-(morpholin-4-yl)but-2-enamide]	> 10000
77.1	5.4	4.3	C=CC(=O)N1CCC(Oc2cc3c(Nc4ccc(Oc5ccn(C(=O)NC(C)(C)CF)n5)cc4F)ncnc3cc2OC)CC1 [Example 5, 3-{3-Fluoro-4-[(7-methoxy-6-{[1-(prop-2-enoyl)piperidin-4-yl]oxy}quinazolin-4-yl)amino]phenoxy}-N-(1-fluoro-2-methylpropan-2-yl)-1H-pyrazole-1-carboxamide]	> 10000
115	15.5	8.9	C=CC(=O)N1CCC(Oc2cc3c(Nc4ccc(Oc5cccc(C(=O)NC(C)(C)C)c5)cc4F)ncnc3cc2OC)CC1 [Example 1, N-tert-Butyl-3-{3-fluoro-4-[(7-methoxy-6-{[1-(prop-2-enoyl)piperidin-4-yl]oxy}quinazolin-4-yl)amino]phenoxy}benzamide]	7900

Second part, the compound before the results:

Compound	GI50 [2] [nM]	GI50 [3] [nM]	GI50 [4] [nM]	GI50 [1] [nM]
C=CC(=O)N1CCC(Oc2cc3c(Nc4ccc(Oc5cccc(-c6cn(C)nn6)c5)cc4Cl)ncnc3cc2OC)CC1 [Example 3, 1-{4-[(4-{2-Chloro-4-[3-(1-methyl-1H-1,2,3-triazol-4-yl)phenoxy]anilino}-7-methoxyquinazolin-6-yl)oxy]piperidin-1-yl}prop-2-en-1-one]	370	40.6	30	9930
C=CC(=O)N1CCC(Oc2cc3c(Nc4ccc(Oc5nc(-c6cncc(F)c6)cs5)cc4F)ncnc3cc2OC)CC1 [Example 38, 1-(4-{[4-(2-Fluoro-4-{[4-(5-fluoropyridin-3-yl)-1,3-thiazol-2-yl]oxy}anilino)-7-methoxyquinazolin-6-yl]oxy}piperidin-1-yl)prop-2-en-1-one]	174	17	18.3	> 10000
C=CC(=O)N1CCC(Oc2cc3c(Nc4ccc(Oc5cccc(-c6nnc(C)o6)c5)cc4F)ncnc3cc2OCC)CC1 [Example 18, 1-{4-[(7-Ethoxy-4-{2-fluoro-4-[3-(5-methyl-1,3,4-oxadiazol-2-yl)phenoxy]anilino}quinazolin-6-yl)oxy]piperidin-1-yl}prop-2-en-1-one]	158	12.2	12.2	4660
C=CC(=O)N1CCC(Oc2cc3c(Nc4ccc(Oc5cccc(-c6nnc(C)o6)c5)cc4Cl)ncnc3cc2OC)CC1 [Example 13, 1-{4-[(4-{2-Chloro-4-[3-(5-methyl-1,3,4-oxadiazol-2-yl)phenoxy]anilino}-7-methoxyquinazolin-6-yl)oxy]piperidin-1-yl}prop-2-en-1-one]	854	44.5	54.1	8280
C=CC(=O)N1CCC(Oc2cc3c(Nc4ccc(Oc5ccn(-c6cnc(C)c(F)c6)n5)cc4F)ncnc3cc2OC)CC1 [Example 27, 1-(4-{[4-(2-Fluoro-4-{[1-(5-fluoro-6-methylpyridin-3-yl)-1H-pyrazol-3-yl]oxy}anilino)-7-methoxyquinazolin-6-yl]oxy}piperidin-1-yl)prop-2-en-1-one]	249	11.6	11.1	8690
CCOc1cc2ncnc(Nc3ccc(Oc4cccc(-c5nnc(C)o5)c4)cc3F)c2cc1NC(=O)/C=C/CN[C@H]1CCOC1 [Example 52, (2E)-N-(7-Ethoxy-4-{2-fluoro-4-[3-(5-methyl-1,3,4-oxadiazol-2-yl)phenoxy]anilino}quinazolin-6-yl)-4-[(3S)-tetrahydrofuran-3-ylamino]but-2-enamide]	245	11.9	19.8	2840
C=CC(=O)N1CCC(Oc2cc3c(Nc4ccc(Oc5nc(-c6cnc(C)nc6)cs5)cc4F)ncnc3cc2OC)CC1 [Example 36, 1-(4-{[4-(2-Fluoro-4-{[4-(2-methylpyrimidin-5-yl)-1,3-thiazol-2-yl]oxy}anilino)-7-methoxyquinazolin-6-yl]oxy}piperidin-1-yl)prop-2-en-1-one]	377	12	10	> 10000
COc1cc2ncnc(Nc3ccc(Oc4cccc(-c5nnc(C)o5)c4)cc3F)c2cc1NC(=O)/C=C/CN1CCCC1 [Example 50, (2E)-N-(4-{2-Fluoro-4-[3-(5-methyl-1,3,4-oxadiazol-2-yl)phenoxy]anilino}-7-methoxyquinazolin-6-yl)-4-(pyrrolidin-1-yl)but-2-enamide]	240	10.9	62.2	750
C=CC(=O)N1CCC(Oc2cc3c(Nc4ccc(Oc5ccn(-c6ccc(F)nc6)n5)cc4F)ncnc3cc2OC)CC1 [Example 32]	162	11.9	12.7	> 10000
C=CC(=O)N1CCC(Oc2cc3c(Nc4ccc(Oc5ccn(C(=O)NC6(C)CC6)n5)cc4F)ncnc3cc2OC)CC1 [Example 8, 3-{3-Fluoro-4-[(7-methoxy-6-{[1-(prop-2-enoyl)piperidin-4-yl]oxy}quinazolin-4-yl)amino]phenoxy}-N-(1-methylcyclopropyl)-1H-pyrazole-1-carboxamide]	172	19.8	19.7	7160
COc1cc2ncnc(Nc3ccc(Oc4nc(-c5nnc(C6CC6)o5)cs4)cc3F)c2cc1NC(=O)/C=C/CN1CC[C@@H](F)C1 [Example 62, (2E)-N-[4-(4-{[4-(5-Cyclopropyl-1,3,4-oxadiazol-2-yl)-1,3-thiazol-2-yl]oxy}-2-fluoroanilino)-7-methoxyquinazolin-6-yl]-4-[(3R)-3-fluoropyrrolidin-1-yl]but-2-enamide]	733	43.9	210	1490
[2H]C([2H])([2H])Oc1cc2ncnc(Nc3ccc(Oc4ccn(C(=O)NC(C([2H])([2H])[2H])(C([2H])([2H])[2H])C([2H])([2H])[2H])n4)cc3F)c2cc1OC1CCN(C(=O)C=C)CC1 [Example 21, 3-{3-Fluoro-4-[(7-[(^2H3)methyloxy]-6-{[1-(prop-2-enoyl)piperidin-4-yl]oxy}quinazolin-4-yl)amino]phenoxy}-N-[2-(^2H3)methyl(^2H6)propan-2-yl]-1H-pyrazole-1-carboxamide]	129	12.1	7.3	7990
[2H]C([2H])([2H])Oc1cc2ncnc(Nc3ccc(Oc4ccn(C(=O)NC(C)(C)C)n4)cc3F)c2cc1OC1CCN(C(=O)C=C)CC1 [Example 20, N-tert-Butyl-3-{3-fluoro-4-[(7-[(^2H3)methyloxy]-6-{[1-(prop-2-enoyl)piperidin-4-yl]oxy}quinazolin-4-yl)amino]phenoxy}-1H-pyrazole-1-carboxamide]	171	18.6	9	> 10000
